In US8895695B2, “Template-fixed beta-hairpin peptidomimetics with CXCR4 antagonizing activity” (priority 2003, dated 2014):
Bridge positions count the residues as written; N and C are the ends. Square brackets hold non-standard residues; d marks the D form. Peptide text beside a SMILES is read from it. 2Nal = N[C@@H](Cc1ccc2ccccc2c1)C(=O)O; Cit = NC(=O)NCCC[C@H](N)C(=O)O

Key:
[1] = system: 'CCR5' cells / Hut/4-3 cells co-cultivation; assay: FIGS-Assay; type: cell-based; settings: 200 nM peptide, 48 hours of co-cultivation
Description: The assay was performed according to ref. 5, below. Stock dilutions of the peptides (10 mM) were prepared by dissolving in 10 mM Tris-HCl at room temperature. Stock solutions were kept at +4° C., light protected. Working dilutions were prepared extemporaneously by serial dilution in Phosphate Buffered Saline (PBS) and added in a final volume of 10 μl directly to the cell cultures. After 48 hours of co-cultivation the cultures were rinsed with PBS and then exposed to glutaraldehyde/formaldehyde (0.2%/2%) in PBS for five minutes. For photometric quantification the fixed cultures were subsequently incubated with ortho-nitro-phenyl-galactopyranoside (ONPG) as a β-galactosidase substrate, which was enzymatically converted into the chromophore ortho-nitrophenol (ONP). The read out is directly obtained by measuring optical density of wells at 405 nm in an iEMS 96well-plate reader.
(§1) All fine chemicals came from Merck (Darmstadt, Germany).

[2] = system: human red blood cells (hRBC); assay: Hemolysis; type: cell-based
Outline: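 Percent lysis taken as OD540 of peptide-treated sample over OD540 of the water/0.1% Triton X-100 full-lysis control, with PBS giving 0%. Peptides at 100 μM exposed to PBS-washed human RBCs (20% v/v) for 1 hour at 37° C. before centrifugation and 20-fold dilution of supernatant.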

CCRF-CEM cells = assay: Chemotactic assay (cell migration assay); type: cell-based; settings: 1 nM SDF-1, 4 hours
Description: as §1
2.7. Chemotactic Assay (Cell Migration Assay)
The chemotactic response of CCRF-CEM cells to a gradient of stromal cell-derived factor 1α (SDF-1) was measured using disposable assay plates from Neuroprobe (5μ pore size) (Gaithersburg, Md.), according to the manufacturer's directions and references therein [especially ref. 8, below]. Briefly, one 175 cm^2 flask was washed once with Dubecco's phosphate buffered saline (DPBS), and trypsinized for 10 minutes or until cells had lifted. The trypsin was neutralized by the addition of fresh medium containing serum and the cells were pelleted, washed once in DPBS, and resuspended at 1-0.5×10^7 cells/ml in RPMI+0.5% bovine serum albumin (BSA). 45 μl of cell suspension were mixed with 5 μl of 10-fold concentrated PEM peptide diluted in the same assay medium. […] The optical absorbance at 595 nm (ABS595) was read using a Tecan Genios plate reader with Magellan software. The number of cells migrated was determined by comparing ABS595 values against a standard curve generated with a known number of cells in the assay plate and were plotted against SDF-1 concentration to obtain a sigmoidal curve and to determine the IC50 values. The values for IC50 were determined using the Trendline function in Microsoft Excel by fitting a logarithmic curve to the averaged datapoints.

CXCR4 = CXCR4 (Homo sapiens, UniProt P61073); assay: Ca2+-assay method 1: CXCR4-antagonizing activity; type: cell-based; parameters: expressed in transfected cells; settings: method 1 (Ex. 1-53), CXCR4 transfected pre-B cells, Fura-2; read-out: IC50 (nM) Ca^2+ assay
Description: 2.2. Ca^2+-Assay: CXCR4-Antagonizing Activity of the Peptides.
The cells were washed free from Fura-2-AM with a platelet centrifuge and resuspended in 800 μl MSB containing 5 mM D-Glucose. The peptides to be administered were diluted to a 100 fold end concentration in MSB/0.2% PPL, and 8 μl were injected. […] Measurements were done under continuous stirring at 37° C. The signal intension was calibrated with 3 mM CaCl2/[…] lonomycin (maximal fura-2-acetoxymethylester saturation) and 10 μM MnCl2 (minimal Fura-2-acetoxymethylester saturation) and [Ca^2+]i-changes are presented in % fora-2-acetoxymethylester saturation. The rate of [Ca^2+]i-changes was calculated on the basis of the initial [Ca^2+]i-changes and plotted in dependence of chemokine concentration to obtain a sigmoidal curve and to determine the IC50 values.
Osmolarity: 310 mOsm adjusted with NaOH or HCl, adjusted with H2O or PBS.
MSB plus: 5 mM D-glucose in MSB (50 mg/50 mL).
Fura 2-acetoxymethylester: 1 mM stock solution in dimethylsulfoxide.

[3] = Cytotoxicity assay (MTT reduction), HELA cells; settings: human, HELA cells (Acc57);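 note: MTT reduction read as absorbance at 595 nm, blank-corrected and expressed as percent growth relative to the time-zero cell reading, triplicate wells per concentration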
Description: (§2) Each peptide concentration was assayed in triplicate. […] Wells were then washed once with PBS and subsequently 100 μl MTT reagent (0.5 mg/mL in medium RPMI1640 and, respectively, DMEM) was added to the wells. This was incubated at 37° C. for 2 hours and subsequently the medium was aspirated and 100 μl isopropanol was added to each well. […] For each concentration averages were calculated from triplicates. The percentage of growth was calculated as follows: (OD595peptide-OD595Tz-OD595Empty well)/(OD595Tz-OD595Empty well)×100% and was plotted for each peptide concentration.
(§3) ‘CCR5’ cells were cultured in DMEM medium with 4500 mg/ml glucose, 10% fetal bovine serum (FBS), supplemented with 50 U/ml Penicillin and 50 μg/ml Streptomycin (Pen/Strept.). Hut/4-3 cells were maintained in RPMI medium, 10% FBS, supplemented with Pen/Strept. and 10 mM HEPES. HELA cells and CCRF-CEM cells were maintained in RPMI1640 plus 5% FBS, Pen/Strept and 2 mM L-Glutamine. Cos-7 cells were grown in DMEM medium with 4500 mg/ml glucose supplemented with 10% FCS, Pen/Strept. and 2 mM L-Glutamine. All cell lines were grown at 37° C. at 5% CO2.

in vitro = settings: human, HELA cells (Acc57)
Description: as §2, §3

Chain of CXCR4 (P61073 whole entry): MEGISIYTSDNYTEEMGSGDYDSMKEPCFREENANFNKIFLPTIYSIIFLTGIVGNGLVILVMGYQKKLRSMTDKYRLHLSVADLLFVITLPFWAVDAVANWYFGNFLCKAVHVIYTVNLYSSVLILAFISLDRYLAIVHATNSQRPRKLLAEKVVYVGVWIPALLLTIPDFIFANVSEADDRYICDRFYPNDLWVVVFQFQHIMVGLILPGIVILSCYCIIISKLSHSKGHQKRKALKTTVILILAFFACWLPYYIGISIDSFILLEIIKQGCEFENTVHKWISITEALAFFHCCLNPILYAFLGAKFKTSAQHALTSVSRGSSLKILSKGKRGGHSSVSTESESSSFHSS

Row | SMILES | FIGS % inhibition at 200 nM [1] | Hemolysis at 100 μM [2] | IC50 (CCRF-CEM cells) | IC50 (CXCR4) | CC50 at 48 h [3] | CC50 at 48 h (in vitro)
1 | N=C(N)NCCC[C@@H]1NC(=O)CNC(=O)CNC(=O)[C@H](CCCNC(=N)N)NC(=O)[C@@H]2CSSC[C@H](NC(=O)[C@H](Cc3ccc4ccccc4c3)NC(=O)[C@H](CCCNC(=N)N)NC1=O)C(=O)N[C@@H](Cc1ccc(O)cc1)C(=O)N[C@@H](CCCNC(N)=O)C(=O)N[C@@H](CCCCN)C(=O)N1CCC[C@@H]1C(=O)N1CCC[C@H]1C(=O)N[C@@H](Cc1ccc(O)cc1)C(=O)N[C@@H](CCCNC(=N)N)C(=O)N[C@@H](CCCNC(N)=O)C(=O)N2 [Ex. 52] (cyclo(YR[Cit]CRGGRR[2Nal]CY[Cit]K[dP]P); disulfide 4-11) | 95.4% | 0% | 2.75 µM | 3.1 nM | 99 µM | –
2 | CC(C)[C@@H]1NC(=O)[C@H](CCCNC(N)=O)NC(=O)[C@H](CCCNC(=N)N)NC(=O)[C@H](Cc2ccc(O)cc2)NC(=O)[C@@H]2CCCN2C(=O)[C@H]2CCCN2C(=O)[C@H](CCCCN)NC(=O)[C@H](CCCNC(N)=O)NC(=O)[C@H](Cc2ccc(O)cc2)NC(=O)[C@H](C(C)C)NC(=O)[C@H](Cc2ccc3ccccc3c2)NC(=O)[C@H](CCCNC(=N)N)NC(=O)[C@H](CCCNC(=N)N)NC(=O)[C@H]2CCCN2C(=O)CNC(=O)[C@H](CCCNC(=N)N)NC1=O [compound 45] (cyclo(YR[Cit]VRG[dP]RR[2Nal]VY[Cit]K[dP]P)) | 65.1% | 0.4% | – | – | – | 132 µM
3 | CC(C)[C@@H]1NC(=O)[C@H](CCCNC(=N)N)NC(=O)[C@@H]2CSSC[C@H](NC(=O)[C@H](Cc3ccc4ccccc4c3)NC(=O)[C@H](CCCNC(=N)N)NC(=O)[C@H](CCCNC(=N)N)NC(=O)CNC1=O)C(=O)N[C@@H](Cc1ccc(O)cc1)C(=O)N[C@@H](CCCNC(N)=O)C(=O)N[C@@H](CCCCN)C(=O)N1CCC[C@@H]1C(=O)N1CCC[C@H]1C(=O)N[C@@H](Cc1ccc(O)cc1)C(=O)N[C@@H](CCCNC(=N)N)C(=O)N[C@@H](CCCNC(N)=O)C(=O)N2 [compound 53] (cyclo(YR[Cit]CRVGRR[2Nal]CY[Cit]K[dP]P); disulfide 4-11) | 91.8% | 0.2% | – | 57.8 nM | 86 µM | –
